Experimental data as given in patent EP0243336A1, “Pharmaceutical compositions for the treatment of intermittent claudication” (U C B, S.A., priority 1986, dated 1987).

Legend:
[1] = test system: patients présentant une artériopathie oblitérante périphérique aux stades cliniques IIa et IIb; experiment: Clinical trial: hemorheological parameters (blood fluidity, erythrocyte aggregation); type: in vivo; settings: after treatment; piracétam given together with HES 200
From the text: Parallèlement au traitement, on a déterminé avant et après celui-ci la fluidité du sang des patients étudiés.
Cet exemple décrit un essai clinique effectué sur deux groupes A et B de 9 patients présentant une artériopathie oblitérante périphérique aux stades cliniques IIa et IIb. […] En outre, la fluidité du sang de ces patients était trés limitée.
Dans les deux groupes de patients, on a également suivi l'évolution de divers paramètres hémorhéologiques.

[2] = test system: patients présentant une artériopathie oblitérante périphérique aux stades cliniques IIa et IIb; experiment: Clinical trial: pain-free walking distance on treadmill before and after six weeks of isovolemic then hypervolemic hemodilution; type: in vivo
From the text: Cet exemple décrit un essai clinique effectué sur deux groupes A et B de 9 patients présentant une artériopathie oblitérante périphérique aux stades cliniques IIa et IIb. Tous ces patients présentaient des oblitérations d'un ou plusieurs jours ou des microangiopathies des membres inférieurs. En outre, la fluidité du sang de ces patients était trés limitée.
Les patients du groupe A (âge moyen: 60 ans) reçoivent un traitement combiné par dilution isovolémique et dilution hypervolémique au moyen de HES 200 (poids moléculaire 200.000) et de piracétam.
A cet effet, en 4 à 5 séances, on prélève chaque fois 500 ml de sang que l'on remplace par une perfusion isovolémique de 500 ml d'une solution aqueuse stérile à 10% de HES 200 contenant 12 g de piracétam. Le rapport en poids entre le HES 200 et le piracétam est donc de 4,1 : 1.
Entre chaque séance de perfusion isovolémique s'écoule un intervalle de 2 à 3 jours pendant lequel les patients reçoivent 12 g de piracétam par jour sous forme d'une suspension buvable.
Ensuite, on administre trois fois par semaine, en perfusion hypervolémique, 500 ml de la solution à 10% de HES 200 contenant 12 g de piracétam.
Le groupe B constitue le groupe témoin et les patients de ce groupe (âge moyen: 60 ans) reçoivent le même traitement, mais sans addition de piracétam.

Compound: NC(=O)CN1CCCC1=O [piracétam, 2-oxo-1-pyrrolidineacétamide]
- fluidité du sang [1]: la meilleure
- temps de claudication et douleurs ([2]; 12 g piracétam added to 500 ml of 10% HES 200): nette diminution
- distance moyenne de marche sans douleur ([2]; 12 g piracétam added to 500 ml of 10% HES 200, versus the same without piracétam): augmente de manière trés significative
